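Interpolation was linear, between the two tested concentrations surrounding the appropriate level; five concentrations were tested over 48 hours in 96-well plates. Here, GI50 denotes the concentration required for 50% inhibition of growth. TGI: concentration producing complete growth inhibition.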
Tests used:
Assay in all cases: NCI anticancer screen, dose series, 48 h
SF-539 CNS = system: SF-539 CNS
HOP-62 NSCLC = system: HOP-62 NSCLC
SN12C renal = system: SN12C renal
MDA-MB-231 breast = system: MDA-MB-231 breast
OVCAR-8 ovarian = system: OVCAR-8 ovarian
UO-31 renal = system: UO-31 renal
TK-10 renal = system: TK-10 renal
HCT-116 colon = system: HCT-116 colon
K-562 leukemia = system: K-562 leukemia
COLO 205 colon = system: COLO 205 colon
A498 renal = system: A498 renal
LOX IMVI melanoma = system: LOX IMVI melanoma
DU-145 prostate = system: DU-145 prostate
RPMI-8226 leukemia = system: RPMI-8226 leukemia
MOLT-4 leukemia = system: MOLT-4 leukemia
KM12 colon = system: KM12 colon
MDA-MB-435 = system: MDA-MB-435
CCRF-CEM leukemia = system: CCRF-CEM leukemia
EKVX NSCLC = system: EKVX NSCLC
HS 578T breast = system: HS 578T breast
SW-620 colon = system: SW-620 colon
RXF 393 renal = system: RXF 393 renal
BT-549 breast = system: BT-549 breast
HL-60(TB) leukemia = system: HL-60(TB) leukemia
SK-MEL-2 melanoma = system: SK-MEL-2 melanoma
IGROV1 ovarian = system: IGROV1 ovarian
M14 melanoma = system: M14 melanoma
PC-3 prostate = system: PC-3 prostate
786-0 renal = system: 786-0 renal
MCF7 breast = system: MCF7 breast
SR leukemia = system: SR leukemia
OVCAR-3 ovarian = system: OVCAR-3 ovarian
NCI-H226 lung = system: NCI-H226 lung
T-47D breast = system: T-47D breast
SF-295 CNS = system: SF-295 CNS
A549 NSCLC = system: A549 NSCLC
NCI-H23 lung = system: NCI-H23 lung
MALME-3M melanoma = system: MALME-3M melanoma
SK-MEL-5 melanoma = system: SK-MEL-5 melanoma
SNB-75 CNS = system: SNB-75 CNS
OVCAR-4 ovarian = system: OVCAR-4 ovarian
SNB-19 CNS = system: SNB-19 CNS
NCI-H460 lung = system: NCI-H460 lung
SF-268 CNS = system: SF-268 CNS
OVCAR-5 ovarian = system: OVCAR-5 ovarian
HCT-15 colon = system: HCT-15 colon
CAKI-1 renal = system: CAKI-1 renal
HT29 colon = system: HT29 colon
UACC-62 melanoma = system: UACC-62 melanoma
U251 CNS = system: U251 CNS
NCI/ADR-RES ovarian = system: NCI/ADR-RES ovarian
UACC-257 melanoma = system: UACC-257 melanoma
HCC-2998 colon = system: HCC-2998 colon
SK-OV-3 ovarian = system: SK-OV-3 ovarian
SK-MEL-28 melanoma = system: SK-MEL-28 melanoma
NCI-H522 lung = system: NCI-H522 lung
ACHN renal = system: ACHN renal

Q: For `CC(=O)C1=C(O)C=C2Oc3c(C(=O)/C=C/c4cc(C(F)(F)F)cc(C(F)(F)F)c4)c(O)c(C)c(O)c3[C@]2(C)C1=O`, which GI50 (SF-539 CNS) is on record?
A: 1400 nM

Q: And the TGI (SF-539 CNS)?
A: 4530 nM

Q: What about the GI50 (HOP-62 NSCLC) of the same molecule?
A: 1180 nM

Q: And the TGI (HOP-62 NSCLC)?
A: 5170 nM

Q: What about the GI50 (SN12C renal) of the same molecule?
A: 513 nM

Q: And the TGI (SN12C renal)?
A: 2020 nM

Q: What about the GI50 (MDA-MB-231 breast) of the same molecule?
A: 525 nM

Q: And the TGI (MDA-MB-231 breast)?
A: 1840 nM

Q: And the GI50 (OVCAR-8 ovarian)?
A: 496 nM

Q: What about the TGI (OVCAR-8 ovarian) of the same molecule?
A: 1910 nM

Q: And the GI50 (UO-31 renal)?
A: 438 nM

Q: What about the TGI (UO-31 renal) of the same molecule?
A: 2050 nM

Q: What about the GI50 (TK-10 renal) of the same molecule?
A: 587 nM

Q: And the TGI (TK-10 renal)?
A: 8230 nM

Q: And the GI50 (HCT-116 colon)?
A: 401 nM

Q: And the TGI (HCT-116 colon)?
A: 1020 nM

Q: And the GI50 (K-562 leukemia)?
A: 498 nM

Q: What about the TGI (K-562 leukemia) of the same molecule?
A: 15000 nM

Q: What about the GI50 (COLO 205 colon) of the same molecule?
A: 527 nM

Q: And the TGI (COLO 205 colon)?
A: 1750 nM

Q: What about the GI50 (A498 renal) of the same molecule?
A: 457 nM

Q: And the TGI (A498 renal)?
A: 1420 nM

Q: What about the GI50 (LOX IMVI melanoma) of the same molecule?
A: 511 nM

Q: What about the TGI (LOX IMVI melanoma) of the same molecule?
A: 1890 nM

Q: What about the GI50 (DU-145 prostate) of the same molecule?
A: 630 nM

Q: What about the TGI (DU-145 prostate) of the same molecule?
A: 4910 nM

Q: And the GI50 (RPMI-8226 leukemia)?
A: 442 nM

Q: And the TGI (RPMI-8226 leukemia)?
A: 1280 nM

Q: What about the GI50 (MOLT-4 leukemia) of the same molecule?
A: 437 nM

Q: What about the TGI (MOLT-4 leukemia) of the same molecule?
A: 15000 nM

Q: And the GI50 (KM12 colon)?
A: 658 nM

Q: What about the TGI (KM12 colon) of the same molecule?
A: 3230 nM

Q: And the GI50 (MDA-MB-435)?
A: 587 nM

Q: And the TGI (MDA-MB-435)?
A: 2350 nM

Q: And the GI50 (CCRF-CEM leukemia)?
A: 487 nM

Q: And the TGI (CCRF-CEM leukemia)?
A: 3820 nM

Q: What about the GI50 (EKVX NSCLC) of the same molecule?
A: 462 nM

Q: What about the TGI (EKVX NSCLC) of the same molecule?
A: 6440 nM

Q: And the GI50 (HS 578T breast)?
A: 861 nM

Q: And the TGI (HS 578T breast)?
A: 5400 nM

Q: What about the GI50 (SW-620 colon) of the same molecule?
A: 553 nM

Q: What about the TGI (SW-620 colon) of the same molecule?
A: 2190 nM

Q: And the GI50 (RXF 393 renal)?
A: 673 nM

Q: What about the TGI (RXF 393 renal) of the same molecule?
A: 3080 nM

Q: And the GI50 (BT-549 breast)?
A: 492 nM

Q: And the TGI (BT-549 breast)?
A: 1800 nM

Q: And the GI50 (HL-60(TB) leukemia)?
A: 401 nM

Q: And the TGI (HL-60(TB) leukemia)?
A: 1140 nM

Q: And the GI50 (SK-MEL-2 melanoma)?
A: 448 nM

Q: And the TGI (SK-MEL-2 melanoma)?
A: 1270 nM

Q: And the GI50 (IGROV1 ovarian)?
A: 671 nM

Q: And the TGI (IGROV1 ovarian)?
A: 8830 nM

Q: What about the GI50 (M14 melanoma) of the same molecule?
A: 612 nM

Q: What about the TGI (M14 melanoma) of the same molecule?
A: 2310 nM

Q: And the GI50 (PC-3 prostate)?
A: 564 nM

Q: What about the TGI (PC-3 prostate) of the same molecule?
A: 2300 nM

Q: What about the GI50 (786-0 renal) of the same molecule?
A: 602 nM

Q: And the TGI (786-0 renal)?
A: 2350 nM

Q: What about the GI50 (MCF7 breast) of the same molecule?
A: 427 nM

Q: What about the TGI (MCF7 breast) of the same molecule?
A: 1700 nM

Q: What about the GI50 (SR leukemia) of the same molecule?
A: 440 nM

Q: And the TGI (SR leukemia)?
A: 3320 nM

Q: What about the GI50 (OVCAR-3 ovarian) of the same molecule?
A: 543 nM

Q: What about the TGI (OVCAR-3 ovarian) of the same molecule?
A: 2270 nM

Q: And the GI50 (NCI-H226 lung)?
A: 2340 nM

Q: And the TGI (NCI-H226 lung)?
A: 5150 nM

Q: And the GI50 (T-47D breast)?
A: 385 nM

Q: What about the TGI (T-47D breast) of the same molecule?
A: 1370 nM

Q: What about the GI50 (SF-295 CNS) of the same molecule?
A: 627 nM

Q: And the TGI (SF-295 CNS)?
A: 4760 nM

Q: And the GI50 (A549 NSCLC)?
A: 666 nM

Q: And the TGI (A549 NSCLC)?
A: 4420 nM

Q: And the GI50 (NCI-H23 lung)?
A: 528 nM

Q: What about the TGI (NCI-H23 lung) of the same molecule?
A: 2870 nM

Q: What about the GI50 (MALME-3M melanoma) of the same molecule?
A: 513 nM

Q: And the TGI (MALME-3M melanoma)?
A: 2420 nM

Q: What about the GI50 (SK-MEL-5 melanoma) of the same molecule?
A: 444 nM

Q: And the TGI (SK-MEL-5 melanoma)?
A: 1270 nM

Q: What about the GI50 (SNB-75 CNS) of the same molecule?
A: 2100 nM

Q: What about the TGI (SNB-75 CNS) of the same molecule?
A: 4910 nM

Q: What about the GI50 (OVCAR-4 ovarian) of the same molecule?
A: 815 nM

Q: And the TGI (OVCAR-4 ovarian)?
A: 11300 nM

Q: What about the GI50 (SNB-19 CNS) of the same molecule?
A: 674 nM

Q: And the TGI (SNB-19 CNS)?
A: 4890 nM

Q: What about the GI50 (NCI-H460 lung) of the same molecule?
A: 521 nM

Q: And the TGI (NCI-H460 lung)?
A: 1900 nM

Q: And the GI50 (SF-268 CNS)?
A: 736 nM

Q: What about the TGI (SF-268 CNS) of the same molecule?
A: 4040 nM

Q: And the GI50 (OVCAR-5 ovarian)?
A: 757 nM

Q: What about the TGI (OVCAR-5 ovarian) of the same molecule?
A: 4460 nM

Q: And the GI50 (HCT-15 colon)?
A: 462 nM

Q: And the TGI (HCT-15 colon)?
A: 2540 nM

Q: What about the GI50 (CAKI-1 renal) of the same molecule?
A: 531 nM

Q: What about the TGI (CAKI-1 renal) of the same molecule?
A: 4830 nM

Q: And the GI50 (HT29 colon)?
A: 535 nM

Q: What about the TGI (HT29 colon) of the same molecule?
A: 1710 nM

Q: And the GI50 (UACC-62 melanoma)?
A: 436 nM

Q: And the TGI (UACC-62 melanoma)?
A: 1270 nM

Q: What about the GI50 (U251 CNS) of the same molecule?
A: 532 nM

Q: What about the TGI (U251 CNS) of the same molecule?
A: 1700 nM

Q: And the GI50 (NCI/ADR-RES ovarian)?
A: 500 nM

Q: What about the TGI (NCI/ADR-RES ovarian) of the same molecule?
A: 2930 nM

Q: What about the GI50 (UACC-257 melanoma) of the same molecule?
A: 728 nM

Q: And the TGI (UACC-257 melanoma)?
A: 4540 nM

Q: What about the GI50 (HCC-2998 colon) of the same molecule?
A: 1530 nM

Q: What about the TGI (HCC-2998 colon) of the same molecule?
A: 3630 nM

Q: And the GI50 (SK-OV-3 ovarian)?
A: 1070 nM

Q: And the TGI (SK-OV-3 ovarian)?
A: 5980 nM

Q: And the GI50 (SK-MEL-28 melanoma)?
A: 747 nM

Q: And the TGI (SK-MEL-28 melanoma)?
A: 2960 nM

Q: And the GI50 (NCI-H522 lung)?
A: 380 nM

Q: What about the TGI (NCI-H522 lung) of the same molecule?
A: 1220 nM

Q: What about the GI50 (ACHN renal) of the same molecule?
A: 552 nM

Q: And the TGI (ACHN renal)?
A: 2260 nM
